Here are results for 15 compounds from the SangsterLogP compilation.

A short description of this data set: method code SF-AS, from DOI: 10.1002/zfch.19810211114.

Usually logP stands for a log measure of how a compound divides between an organic and an aqueous phase. Lower therefore signals lower lipophilicity. As to `CC(C)(C)NC(=O)NN`, the logP is -0.81.

In turn, `CCCCCNC(=O)NN` registered a logP of -0.04.

`CCCCCCNC(=O)NN` showed a logP of 0.46.

`CCCCNC(=O)NN` registered a lipophilicity (logP) of -0.6.

With `CC(C)NC(=O)NN`, the logP was -1.3.

Turning to `NNC(=O)NCc1ccccc1`, the lipophilicity (logP) is -0.22.

As for `CCNC(=O)NN`, the logP was -1.62.

Compound `CN(C)C(=O)NN` returned a logP of -1.57.

`CC(C)CNC(=O)NN` registered a logP of -0.84.

The compound `CCN(CC)C(=O)NN` showed a lipophilicity (logP) of -0.62.

`CNC(=O)NN`: the logP is -2.2.

Regarding `NNC(N)=O`, the logP is -2.75.

The compound `CCCNC(=O)NN` registered a logP of -1.1.

`NNC(=O)NC1CCCCC1` returned a logP of 0.15.

In turn, `C=CCNC(=O)NN` displayed a logP of -1.55.
